Common to all, as to assay type: cell-based, human
For test [1], the system named is NK cells from CMV seropositive donors. Briefly: Culture of CD3/CD19-depleted PBMCs with IL-15; FACS for CD45RA/CD45RO. The settings on record: autologous monocytes, 10 ng/mL IL-15, 7 days. As for the experimental part:
CD3/CD19-depleted peripheral blood mononuclear cells from typed healthy CMV seronegative and seropositive donors were cultured with 10 ng/mL IL-15. After 7 days, cells were harvested and analyzed by FACS. Shown are representative phenotypes from one CMV seropositive and one CMV seronegative donor both before and after culture (top). Cumulative data showing the percentages of CD3^−CD56^+CD45RA^−CD45RO^+ NK cells from five CMV seronegative and eight CMV seropositive donors pre- and post-culture are shown (bottom). Data are representative of two independent experiments. Paired student's t-tests were used to determine statistical significance within groups, and unpaired student's t-tests were used to determine statistical significance between groups (CMV seropositive and CMV seronegative). *p≤0.05, **p≤0.01, ***p≤0.001.
CD3/CD19-depleted peripheral blood mononuclear cells from typed healthy CMV seronegative and seropositive donors were cultured with 10 ng/mL IL-15. Percentages of CD3^−CD56^+CD45RA^−CD45RO^+ NK cells from CMV seronegative and CMV seropositive donors pre- and post-culture were measured using FACS.

Test [2] has as its system PLZF expression in cord blood-derived CD56^dim NK cells. Briefly: Intracellular PLZF staining of cord blood-derived CD56^dim NK cells after 14 days in culture. The settings on record: high-dose IL-15, IL-21 where added. How it is done:
FIG. 6A. FACS plots of intracellular PLZF expression in cord blood-derived CD56^dim NK cells from a representative donor after 14 days in the indicated culture conditions. FIG. 6B. Cumulative data showing the percentage of PLZF″ NK cells after 14 days in each culture condition from 6 donors. Two independent experiments were performed. Error bars represent SEM.
(§1) Mononuclear cells were isolated from whole cord blood by density gradient centrifugation. T cells and B cells were depleted by positive magnetic selection using anti-CD3 and anti-CD19 microbeads, respectively. CD3/CD19-depleted cells were then added to irradiated OP9 cells at a concentration of 5×10^5 cells/well and cultured for 14 days in RPMI media+10% FBS supplemented with either 1 ng/mL IL-15 or 10 ng/mL IL-15 with or without 50 ng/mL IL-21.
(§2) Cord blood-derived NK cells were analyzed before culture and after 7 and 14 days of culture by fluorescence activated cell sorting (FACS) using the following extracellular and intracellular antibodies: BV785-conjugated anti-CD3 (BioLegend, San Diego, CA), PE-Cy7-conjugated anti-CD56 (BioLegend, San Diego, CA), BV605-conjugated anti-CD57 (BioLegend, San Diego, CA), APC-conjugated SYK (eBioscience, San Diego, CA), and PE-conjugated anti-PLZF (BD Biosciences, San Jose, CA).
Transcriptional silencing of the transcription factor promyelocytic leukemia zinc finger (PLZF) is a hallmark of adaptive NK cells that expand in response to CMV infection (Schlums et al. Immunity. 2015; 42(3):443-456). Intracellular staining for PLZF was performed in NK cells from freshly isolated mononuclear cells and from cells that were cultured for 14 days in vitro. Freshly isolated CD56^dimSYK^− NK cells from cord blood were predominantly PLZF-positive (99.3%±0.10). […] Therefore, IL-21 drives down PLZF expression in CD56^dimSYK^− NK cells, causing these cells to acquire adaptive characteristics (FIG. 6).

The subject of test [3] is cord blood-derived CD56^+ NK cells. In words: Cord blood-derived NK cell culture on OP9 native or OP9-DL1 stromal cells with IL-15 with or without IL-21; FACS for CD57 and SYK. How it is done:
OP9 stromal cells transduced with either the empty MigR1 retroviral vector (OP9 native) or with the MigR1 retroviral vector containing the Delta-like 1 gene (OP9-DL1) (Schmitt et al. Immunity. 2002; 17(6):749-756) were cultured in MEMα media+20% fetal bovine serum (FBS) at a concentration of 4×10^5 cells/well in 24-well plates for two days to allow for cell adherence. Plates were then irradiated with 2,000 cGy to stop cell proliferation.
as §1, §2
The Notch signaling pathway plays an essential role in effector CD8^+ T cell differentiation and controls the acquisition of effector function (Backer et al. Nat Immunol. 2014; 15(12):1143-1151). To determine if Notch signaling could play a role in driving the differentiation and expansion of terminally differentiated and adaptive NK cell subsets, CD3/CD19-depleted mononuclear cells were cultured from cord blood on native OP9 stromal cells or OP9 stromal cells stably transduced with the Notch ligand DL1 in the presence of low-dose (1 ng/mL) IL-15 or high-dose (10 ng/mL) IL-15 with or without IL-21 (50 ng/mL). Cells were harvested at days 7 and 14, and CD56^+ NK cells were analyzed by fluorescence activated cell sorting (FACS) for expression of CD57 and SYK. Prior to culture, an average of 2.13%±0.44 of CD56^+ NK cells expressed CD57.

Where [4] appears, read: OP9-DL1, high-dose (10 ng/mL) IL-15, day 7.
Setting [5] is: OP9-DL1, high-dose (10 ng/mL) IL-15, day 14.
Where [6] appears, read: OP9-DL1, low-dose (1 ng/mL) IL-15, day 7.
Where [7] appears, read: OP9-DL1, low-dose (1 ng/mL) IL-15, day 14.
Setting [8] is: OP9 native, high-dose (10 ng/mL) IL-15, day 7.
[9] abbreviates: OP9 native, high-dose (10 ng/mL) IL-15, day 14.
[10] abbreviates: OP9 native, low-dose (1 ng/mL) IL-15, day 7.
The mark [11] stands for this setting: OP9 native, low-dose (1 ng/mL) IL-15, day 14.

Several values for one entry are separate records, joined by “and”; a condition that tells them apart may be missing. Equal values may be shown once.

Consider “IL-15: cytokine in culture medium, low-dose 1 ng/mL or high-dose 10 ng/mL”, for which, in test [1], the “CD45RA/CD45RO phenotype of NK cells” value is recorded as “skew towards a CD45RA^−CD45RO^+ phenotype”. Moreover, the “decrease in PLZF expression (percentage of PLZF-negative NK cells)” value in test [2] (CD56^dimCD57^−SYK^+ NK cells) is 9.93%±0.75; in test [2] (CD56^dimCD57^−SYK^− NK cells), 7.05%±1.31. In addition, the “percentage of CD56^+ NK cells expressing CD57” value in test [3] (setting [4]) is listed as 1.30%±0.31; in test [3] (setting [5]), 0.86%±0.44; in test [3] (setting [6]), 0.91%±0.34; in test [3] (setting [7]), 0.93%±0.40; in test [3] (setting [8]), 0.70%±0.23; in test [3] (setting [9]) it was 0.22%±0.10. For the same substance, the entries for the “percentage of CD56^+ NK cells expressing CD57” value in test [3] (setting [10]) and in test [3] (setting [11]) were 0.59%±0.19 and 0.24%±0.11, respectively. For the same substance, the “percentage of CD56^+ NK cells lacking SYK” value was 0.34%±0.04 and 0.67%±0.10 in test [3] (setting [4]); 0.43%±0.15 in test [3] (setting [5]); 0.25%±0.06 in test [3] (setting [6]); 0.17%±0.08 in test [3] (setting [7]); 0.21%±0.05 in test [3] (setting [8]); 0.43%±0.15 in test [3] (setting [9]). The “percentage of CD56^+ NK cells lacking SYK” value in test [3] (setting [10]) was 0.18%±0.06; in test [3] (setting [11]), 0.07%±0.03.
